# Measured values taken from the supplement of paper PMC10307832.
# Legend:
# Experiment in all cases: relative viability (nuclei count vs DMSO), 5 days (fraction); higher = more cells survive
# [1] = compound: C1COCCN1CC2=CC(=O)C(=CO2)OCCCCCSC3=C4C=CC(=CC4=NC=C3)C(F)(F)F [EHT 1864] + CCNC(=O)c1noc(-c2cc(C(C)C)c(O)cc2O)c1-c1ccc(CN2CCOCC2)cc1 [Luminespib] (partner 0.01 µM)
# How it was run: (§1)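 Relative viability was taken as the ratio of nuclei in treated wells to nuclei in vehicle wells. Lung cancer cell lines in 1536-well plates received compounds by pin tool one day after seeding, either one drug alone or a fixed anchor-drug dose plus five library-drug doses (not always all listed) in √10 steps. Nuclei were counted on 4× images after 5 days of treatment, and values are medians of duplicate plates.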
# [2] = compound: C1COCCN1CC2=CC(=O)C(=CO2)OCCCCCSC3=C4C=CC(=CC4=NC=C3)C(F)(F)F [EHT 1864] + COc1cccc2cc(-c3nc([C@H]4CC[C@H](C(=O)O)CC4)n4ncnc(N)c34)[nH]c12 [OSI-027] (partner 0.5 µM)
# How it was run: as §1
# [3] = compound: C1COCCN1CC2=CC(=O)C(=CO2)OCCCCCSC3=C4C=CC(=CC4=NC=C3)C(F)(F)F [EHT 1864] + CS(=O)(=O)CCNCc1ccc(-c2ccc3ncnc(Nc4ccc(OCc5cccc(F)c5)c(Cl)c4)c3c2)o1 [Lapatinib] (partner 2 µM)
# How it was run: as §1
# [4] = compound: C1COCCN1CC2=CC(=O)C(=CO2)OCCCCCSC3=C4C=CC(=CC4=NC=C3)C(F)(F)F [EHT 1864] + C[C@]1(O)C[C@@H](c2nc(-c3ccc4ccc(-c5ccccc5)nc4c3)c3c(N)nccn32)C1 [Linsitinib] (partner 1 µM)
# How it was run: as §1
Cell Line,relative viability ([1]; first compound 0.04 µM),relative viability ([1]; first compound 0.1265 µM),relative viability ([1]; first compound 0.4 µM),relative viability ([1]; first compound 1.265 µM),relative viability ([1]; first compound 4 µM),relative viability ([2]; first compound 0.04 µM),relative viability ([2]; first compound 0.1265 µM),relative viability ([2]; first compound 0.4 µM),relative viability ([2]; first compound 1.265 µM),relative viability ([2]; first compound 4 µM),relative viability ([3]; first compound 0.04 µM),relative viability ([3]; first compound 0.1265 µM),relative viability ([3]; first compound 0.4 µM),relative viability ([3]; first compound 1.265 µM),relative viability ([3]; first compound 4 µM),relative viability ([4]; first compound 0.04 µM),relative viability ([4]; first compound 0.1265 µM),relative viability ([4]; first compound 0.4 µM),relative viability ([4]; first compound 1.265 µM),relative viability ([4]; first compound 4 µM)
H3255,0.895,0.799,1.01,0.917,1.07,0.552,0.582,0.603,0.602,0.616,0.235,0.239,0.275,0.298,0.317,0.934,0.848,1.04,1,0.898
EPLC-272H,0.347,0.365,0.266,0.521,0.606,0.296,0.254,0.257,0.324,0.253,1.06,0.624,1.12,0.88,0.801,1.4,1.16,1.04,1.32,1.25
PC-3 [JPC-3],0.742,0.695,0.664,0.673,0.696,0.743,0.575,0.742,0.732,0.646,0.508,0.405,0.452,0.474,0.438,0.982,0.938,0.942,0.949,0.952
NCI-H1944,0.827,,0.74,0.712,0.802,0.44,,0.443,0.417,0.399,0.907,,0.916,0.858,0.817,1.28,,1.21,1.25,1.25
EKVX,0.9,0.871,0.834,0.836,0.885,0.705,0.68,0.698,0.711,0.839,0.238,0.216,0.205,0.207,0.21,0.886,0.976,1.04,1.08,1.02
ChaGo-K-1,0.487,0.604,0.703,0.547,0.559,0.512,0.476,0.7,0.562,0.517,,,,,,,,,,
NCI-H23,0.194,,0.242,0.193,0.204,0.511,0.352,0.673,0.523,0.563,0.927,,1.05,0.938,0.928,0.522,,0.443,0.59,0.551
EMC-BAC-2,1.12,1.09,1.16,1.12,1.05,0.465,0.309,0.383,0.37,0.341,0.901,0.765,0.765,0.845,0.882,0.803,0.757,0.792,0.815,0.784
LOU-NH91,0.345,0.345,0.342,0.294,0.32,0.721,0.572,0.768,0.777,0.66,0.769,0.746,0.802,0.81,0.797,0.975,0.875,1.06,1.1,0.767
LU99A,0.186,0.242,0.229,0.215,0.233,0.354,0.212,0.327,0.29,0.278,1.02,0.64,0.873,1.17,0.949,0.514,0.4,0.5,0.607,0.539
NCI-H1395,0.605,0.688,0.648,0.76,0.673,0.649,0.515,0.683,0.621,0.696,1.04,0.877,1.05,1.01,0.861,1.02,0.982,0.957,1.16,1.02
NCI-H460,0.0334,0.0284,0.0337,0.0326,0.0353,0.678,0.576,0.649,0.621,0.552,0.891,0.897,0.975,0.845,0.885,0.76,0.603,0.747,0.624,0.845
201T,0.994,1.06,1.01,0.891,0.946,0.762,0.549,0.623,0.572,0.744,1.07,1,1.07,1.01,1.01,1.08,1.05,1.08,0.925,1.03
NCI-H2170,0.725,0.751,0.745,0.63,0.612,0.787,0.582,0.803,0.795,0.702,0.272,0.268,0.283,0.239,0.271,,,,,
NCI-H2405,0.745,0.667,0.703,0.581,0.603,0.655,0.647,0.642,0.535,0.714,1.1,1.02,1.11,,1.13,0.922,0.933,1.06,,0.851
NCI-H1703,,,,,,,,,,,0.796,0.857,1.21,1.01,0.854,0.725,,0.931,0.789,0.647
NCI-H1755,0.618,0.3,0.601,0.42,0.401,0.779,0.619,0.691,0.619,0.618,1.08,0.866,1.04,0.998,1.05,0.983,0.907,0.956,0.927,0.962
